{"source": "patent US20210145816A1", "about": "“PHARMACEUTICAL FORMULATION OF LONAFARNIB WITH A SULFOBUTYLETHER BETA-CYCLODEXTRIN” (Cyclolab Cyclodextrin Research and Development Laboratory …, priority 2019, published 2021)", "key": {"[1]": {"experiment": "formulation of lonafarnib into a liquid vehicle with 2-hydroxypropyl beta cyclodextrin", "format": "physicochemical", "conditions": "20% 2-hydroxypropyl beta cyclodextrin, lonafarnib 12 mg/ml", "method": "A prior publication describing formulation of lonafarnib into a liquid vehicle with a cyclodextrin is known (Hernandez et al., Science Translational Medicine, 11, eaat3005 (2019)), but based on the disclosed data, even using high concentration (20%) of 2-hydroxypropyl beta cyclodextrin (hydroxypropyl betadex), a suspension of lonafarnib was obtained for the (pre)clinically relevant concentration of the drug (12 mg/ml). […] Consequently, present invention provides a significant formulation improvement over the teachings of said journal publication."}, "[2]": {"conditions": "water; cited from earlier work"}, "[3]": {"conditions": "20% 2-hydroxypropyl beta cyclodextrin, lonafarnib 12 mg/ml; cited from earlier work"}}}
{"smiles": "NC(=O)N1CCC(CC(=O)N2CCC([C@H]3c4ncc(Br)cc4CCc4cc(Cl)cc(Br)c43)CC2)CC1", "note": "[Lonafarnib]", "values": [{"measurement": "physical state of liquid formulation obtained (experiment reproduced by Cyclolab Ltd.)", "setting": "[1]", "result": "rough suspension, unsuitable for parenteral application"}, {"measurement": "aqueous solubility", "setting": "[2]", "result": 800, "unit": "ng/mL"}, {"measurement": "physical state of liquid formulation obtained (Hernandez et al. 2019)", "setting": "[3]", "result": "suspension"}]}
